Measured values taken from ChEMBL document CHEMBL1201862, “PubChem BioAssay data set” (2004).
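96-well plates; 48 h exposure; 5 concentrations. Endpoints by linear interpolation between flanking doses. Not reached: highest tested concentration assigned. Here, GI50 denotes the concentration required for 50% inhibition of growth.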 Activity calls are given as the source filed them. Rule as the data show it: active = GI50 up to about 1.1 µM and inactive = higher.

What was measured:
Test in all cases: inhibition of tumour cell growth, NCI panel, 48 h
786-0 = system: 786-0
A549 = system: A549
ACHN = system: ACHN
CAKI-1 = system: CAKI-1
CCRF-CEM = system: CCRF-CEM
COLO 205 = system: COLO 205
DLD-1 = system: DLD-1
DMS-273 = system: DMS-273
HCC 2998 = system: HCC 2998
HCT-15 = system: HCT-15
HL-60 = system: HL-60
HOP-62 = system: HOP-62
HOP-92 = system: HOP-92
HT-29 = system: HT-29
IGROV-1 = system: IGROV-1
K562 = system: K562
KM-20L2 = system: KM-20L2
KM12 = system: KM12
LOX IMVI = system: LOX IMVI
LXFL 529 = system: LXFL 529
M14 = system: M14
M19-MEL = system: M19-MEL
MOLT-4 = system: MOLT-4
Malme-3M = system: Malme-3M
NCI-H226 = system: NCI-H226
NCI-H23 = system: NCI-H23
NCI-H460 = system: NCI-H460
NCI-H522 = system: NCI-H522
OVCAR-3 = system: OVCAR-3
OVCAR-4 = system: OVCAR-4
OVCAR-5 = system: OVCAR-5
OVCAR-8 = system: OVCAR-8
RPMI-8226 = system: RPMI-8226
RXF 393 = system: RXF 393
SF-268 = system: SF-268
SF-295 = system: SF-295
SF-539 = system: SF-539
SK-MEL-28 = system: SK-MEL-28
SK-MEL-2 = system: SK-MEL-2
SK-OV-3 = system: SK-OV-3
SN12C = system: SN12C
SNB-19 = system: SNB-19
SNB-75 = system: SNB-75
SR = system: SR
SW-620 = system: SW-620
TK-10 = system: TK-10
U-251 = system: U-251
UACC-257 = system: UACC-257
UACC-62 = system: UACC-62
UO-31 = system: UO-31
XF498 = system: XF498
A498 = system: A498
DMS-114 = system: DMS-114
EKVX = system: EKVX
HCT-116 = system: HCT-116
HOP-18 = system: HOP-18
SK-MEL-5 = system: SK-MEL-5
SNB-78 = system: SNB-78

## O=S(=O)(c1ccccc1)C(CN1CCCCC1)S(=O)(=O)c1ccccc1
786-0
  GI50: > 100 µM (inactive)
A549
  GI50: > 100 µM (inactive)
ACHN
  GI50: > 100 µM (inactive)
CAKI-1
  GI50: > 100 µM (inactive)
CCRF-CEM
  GI50: > 100 µM (inactive)
COLO 205
  GI50: > 100 µM (inactive)
DLD-1
  GI50: > 100 µM (inactive)
DMS-273
  GI50: > 100 µM (inactive)
HCC 2998
  GI50: > 100 µM (inactive)
HCT-15
  GI50: > 100 µM
HL-60
  GI50: > 100 µM (inactive)
HOP-62
  GI50: > 100 µM (inactive)
HOP-92
  GI50: > 100 µM (inactive)
HT-29
  GI50: > 100 µM (inactive)
IGROV-1
  GI50: > 100 µM (inactive)
K562
  GI50: > 100 µM (inactive)
KM-20L2
  GI50: > 100 µM (inactive)
KM12
  GI50: > 100 µM (inactive)
LOX IMVI
  GI50: > 100 µM (inactive)
LXFL 529
  GI50: > 100 µM (inactive)
M14
  GI50: > 100 µM (inactive)
M19-MEL
  GI50: > 100 µM (inactive)
MOLT-4
  GI50: > 100 µM (inactive)
Malme-3M
  GI50: > 100 µM (inactive)
NCI-H226
  GI50: > 100 µM (inactive)
NCI-H23
  GI50: > 100 µM (inactive)
NCI-H460
  GI50: > 100 µM (inactive)
NCI-H522
  GI50: > 100 µM (inactive)
OVCAR-3
  GI50: > 100 µM (inactive)
OVCAR-4
  GI50: > 100 µM (inactive)
OVCAR-5
  GI50: > 100 µM (inactive)
OVCAR-8
  GI50: > 100 µM (inactive)
RPMI-8226
  GI50: > 100 µM (inactive)
RXF 393
  GI50: > 100 µM (inactive)
SF-268
  GI50: > 100 µM (inactive)
SF-295
  GI50: > 100 µM (inactive)
SF-539
  GI50: > 100 µM (inactive)
SK-MEL-28
  GI50: > 100 µM (inactive)
SK-MEL-2
  GI50: > 100 µM (inactive)
SK-OV-3
  GI50: > 100 µM (inactive)
SN12C
  GI50: > 100 µM (inactive)
SNB-19
  GI50: > 100 µM (inactive)
SNB-75
  GI50: > 100 µM (inactive)
SR
  GI50: > 100 µM (inactive)
SW-620
  GI50: > 100 µM (inactive)
TK-10
  GI50: > 100 µM (inactive)
U-251
  GI50: > 100 µM (inactive)
UACC-257
  GI50: > 100 µM (inactive)
UACC-62
  GI50: > 100 µM (inactive)
UO-31
  GI50: > 100 µM (inactive)
XF498
  GI50: > 100 µM (inactive)

## CCCCCCCOc1ccc(/C=C\c2cc[n+](CCCCCCCC[n+]3ccc(/C=C\c4ccc(OCCCCCCC)cc4)cc3)cc2)cc1
786-0
  GI50: 14.7 µM (inactive)
A498
  GI50: 26.6 µM (inactive)
A549
  GI50: 8.55 µM (inactive)
ACHN
  GI50: 38.2 µM (inactive)
CAKI-1
  GI50: 33.5 µM (inactive)
CCRF-CEM
  GI50: > 100 µM (inactive)
COLO 205
  GI50: 10.7 µM (inactive)
DLD-1
  GI50: 21.8 µM (inactive)
DMS-114
  GI50: 21.6 µM (inactive)
DMS-273
  GI50: 4.3 µM (inactive)
EKVX
  GI50: > 100 µM (inactive)
HCT-116
  GI50: 13.6 µM (inactive)
HCT-15
  GI50: 19.9 µM
HL-60
  GI50: 4.3 µM (inactive)
HOP-18
  GI50: 15.1 µM (inactive)
HOP-62
  GI50: 26.6 µM (inactive)
HOP-92
  GI50: > 100 µM (inactive)
HT-29
  GI50: 13.8 µM (inactive)
IGROV-1
  GI50: 11.3 µM (inactive)
KM-20L2
  GI50: 29.6 µM (inactive)
KM12
  GI50: 15 µM (inactive)
LOX IMVI
  GI50: 25 µM (inactive)
LXFL 529
  GI50: 13.3 µM (inactive)
M14
  GI50: 17.5 µM (inactive)
M19-MEL
  GI50: 21.9 µM (inactive)
MOLT-4
  GI50: 15.2 µM (inactive)
Malme-3M
  GI50: 18.7 µM (inactive)
NCI-H23
  GI50: 28.2 µM (inactive)
NCI-H460
  GI50: 5.51 µM (inactive)
NCI-H522
  GI50: 2.64 µM (inactive)
OVCAR-3
  GI50: 19.1 µM (inactive)
OVCAR-4
  GI50: 21.6 µM (inactive)
OVCAR-5
  GI50: 17.7 µM (inactive)
OVCAR-8
  GI50: 20.7 µM (inactive)
RPMI-8226
  GI50: 7.29 µM (inactive)
RXF 393
  GI50: > 100 µM (inactive)
SF-268
  GI50: 23.8 µM (inactive)
SF-295
  GI50: 13.3 µM (inactive)
SF-539
  GI50: 65.5 µM (inactive)
SK-MEL-28
  GI50: 17.6 µM (inactive)
SK-MEL-2
  GI50: 17.6 µM (inactive)
SK-MEL-5
  GI50: 14.6 µM (inactive)
SK-OV-3
  GI50: 28.1 µM (inactive)
SN12C
  GI50: 20 µM (inactive)
SNB-19
  GI50: 7.87 µM (inactive)
SNB-75
  GI50: > 100 µM (inactive)
SNB-78
  GI50: > 100 µM (inactive)
TK-10
  GI50: 23.9 µM (inactive)
U-251
  GI50: 7.46 µM (inactive)
UACC-257
  GI50: 86.1 µM (inactive)
UACC-62
  GI50: 35.3 µM (inactive)
UO-31
  GI50: 19.5 µM (inactive)
